Experimental data published in patent US20200010814A1, “NOVEL MONOOXYGENASE AND UTILIZATION THEREOF” (KANEKA CORPORATION, priority 2017, published 2020).

Tested on: pQAH1/pRAT1 Rhodococcus erythropolis L88
Assay: Evaluation of substrate specificity
Format: cell-based
Conditions: 10 mM substrate, 5% glucose, 26 hours of reaction; NMR and optical rotation analyses
Method: pQAH1/pRAT1 Rhodococcus erythropolis L88 was cultured in an LB medium by a method similar to that for Example 5. Expression of a protein was induced with 0.2 μg/ml of thiostrepton, and then 10 mM of each of L-isovaline, D-isovaline, L-aminobutyrate, and D-aminobutyrate was added together with 5% glucose. After 26 hours of reaction, the reaction supernatant was analyzed by the LCMS analysis method used for Example 1.

Row | Compound | product of the hydroxylation reaction of the substrate
1 | CC[C@@H](N)C(=O)O [D-aminobutyrate] | D-allo-threonine
2 | CC[C@@](C)(N)C(=O)O [D-isovaline] | (2R,3R)-2-methyl threonine
3 | CC[C@H](N)C(=O)O [L-aminobutyrate] | L-allo-threonine
4 | CC[C@](C)(N)C(=O)O [L-isovaline] | (2S,3S)-2-methyl threonine
